From the Kinase Knowledgebase extract (Sharma et al. 2016)

target: MAPK14 (human) (UniProt Q16539); test: Inhibition of LPS Stimulated TNF Production by U937 Cells; details: not given
Sequence (Q16539 whole entry, looked up): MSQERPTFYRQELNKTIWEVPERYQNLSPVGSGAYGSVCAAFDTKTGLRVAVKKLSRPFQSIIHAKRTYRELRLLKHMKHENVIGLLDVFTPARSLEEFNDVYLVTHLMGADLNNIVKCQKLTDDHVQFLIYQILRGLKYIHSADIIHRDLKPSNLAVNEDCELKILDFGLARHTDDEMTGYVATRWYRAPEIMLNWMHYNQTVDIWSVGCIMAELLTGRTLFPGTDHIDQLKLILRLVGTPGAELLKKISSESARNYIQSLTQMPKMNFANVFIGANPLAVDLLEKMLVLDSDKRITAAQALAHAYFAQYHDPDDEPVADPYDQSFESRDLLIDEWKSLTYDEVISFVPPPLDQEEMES

SMILES | IC50 [nM]
CC(Nc1cc(-c2c[nH]nc2-c2ccc(F)cc2)ccn1)c1ccc(F)cc1 (stereo not drawn) | 4.4
CCN(CC)CCn1cc(-c2ccnc(F)c2)c(-c2ccc(F)cc2)n1 | 2300
O=C(NCCCc1[nH]nc(-c2ccc(F)cc2)c1-c1ccncc1)NCCCN1CCCC1=O | > 1000
O=C(NCc1[nH]nc(-c2ccc(F)cc2)c1-c1ccncc1)C1CC1 | 3330
CC(=O)NCc1[nH]nc(-c2ccc(F)cc2)c1-c1ccncc1 | 190
COC(=O)CNc1n[nH]c(-c2ccc(F)cc2)c1-c1ccncc1 | > 10000
Cc1onc(-c2c(F)cccc2Cl)c1C(=O)NCc1[nH]nc(-c2ccc(F)cc2)c1-c1ccncc1 | > 1000
CCNC(=O)N[C@@H](CCC(=O)NC)c1[nH]nc(-c2ccc(F)cc2)c1-c1ccncc1 | > 1000
C[C@H](NC(=O)N1CCCC1)c1[nH]nc(-c2ccc(F)cc2)c1-c1ccncc1 | 2170
Cc1n[nH]c(-c2ccc(N(C)C)cc2)c1-c1ccncc1 | 99
Cn1cc(-c2ccnc(F)c2)c(-c2ccc(F)c(F)c2)n1 | 1280
CNC(=O)CC[C@H](NC(=O)COC)c1[nH]nc(-c2ccc(F)cc2)c1-c1ccncc1 | > 1000
OCCn1cc(-c2ccnc(/C=C/c3ccc(F)cc3)c2)c(-c2ccc(F)cc2)n1 | 347
O=C(NCc1[nH]nc(-c2ccc(F)cc2)c1-c1ccncc1)c1ccc(F)c(F)c1 | 1010
O=C(NCCCc1[nH]nc(-c2ccc(F)cc2)c1-c1ccncc1)NCCCn1ccnc1 | > 1000
C#CCNc1n[nH]c(-c2ccc(F)cc2)c1-c1ccncc1 | 300
Cc1nn(C)c(-c2ccc(Cl)cc2)c1-c1ccncc1 | 2700
CCOc1ccc(-c2[nH]nc(C)c2-c2ccncc2)cc1 | 2360
Cc1cccc(-c2n[nH]cc2-c2ccnc(C)c2)c1 | 301
COc1cc(NC(=O)CCNC(=O)Cn2nc(-c3ccc(F)cc3)c(-c3ccncc3)c2C)cc2ccccc12 | 4220
Fc1ccc(-c2n[nH]cc2-c2ccnc(NC3CCN(Cc4ccccc4)CC3)c2)cc1 | 543
COc1ccc(CNc2cc(-c3c[nH]nc3-c3ccc(Cl)cc3)ccn2)cc1 | 495
CCc1n[nH]c(-c2ccccc2)c1-c1ccncc1 | 243
COC(=O)CCC(=O)NCc1[nH]nc(-c2ccc(F)cc2)c1-c1ccncc1 | 10000
Cn1cc(-c2ccncc2)c(-c2ccc3c(c2)OCO3)n1 | 322

The remaining lines, values ahead:

IC50 [nM] | SMILES
1510 | C[C@@H](NC(N)=O)c1[nH]nc(-c2ccc(F)cc2)c1-c1ccncc1
> 1000 | CNC(=O)CC[C@H](NC(=O)c1ccccc1OC)c1[nH]nc(-c2ccc(F)cc2)c1-c1ccncc1
2170 | O=S(=O)(NCc1[nH]nc(-c2ccc(F)cc2)c1-c1ccncc1)c1ccc(F)cc1F
> 1000 | Cc1ccc(C(=O)N[C@H](Cc2ccccc2)c2[nH]nc(-c3ccc(F)cc3)c2-c2ccncc2)cc1
3920 | O=[N+]([O-])c1cccc(S(=O)(=O)NCc2[nH]nc(-c3ccc(F)cc3)c2-c2ccncc2)c1
> 1000 | CNC(=O)CC[C@H](NC(=O)c1cccc(Br)c1)c1[nH]nc(-c2ccc(F)cc2)c1-c1ccncc1
> 1000 | O=C(N[C@H](Cc1ccccc1)c1[nH]nc(-c2ccc(F)cc2)c1-c1ccncc1)c1ccccc1C(F)(F)F
640 | C[C@@H](NC(=O)c1ccccc1C(F)(F)F)c1[nH]nc(-c2ccc(F)cc2)c1-c1ccncc1

same assay, conditions: concentration not given here

SMILES | inhibition [%]
CCN(CC)C(=O)N[C@H](C)c1[nH]nc(-c2ccc(F)cc2)c1-c1ccncc1 | 49
O=S(=O)(NCc1[nH]nc(-c2ccc(F)cc2)c1-c1ccncc1)c1cc(Cl)cc(Cl)c1O | 6
C[C@H](NC(=O)[C@H]1CCCN1)c1[nH]nc(-c2ccc(F)cc2)c1-c1ccncc1 | 20
O=S(=O)(c1ccc(F)cc1)N1CCC(c2[nH]nc(-c3ccc(F)cc3)c2-c2ccncc2)CC1 | 28
CC1(C)[C@@H]2CC[C@]1(S(=O)(=O)NCCc1[nH]nc(-c3ccc(F)cc3)c1-c1ccncc1)C(=O)C2 | 56
O=S(=O)(NCCc1[nH]nc(-c2ccc(F)cc2)c1-c1ccncc1)c1cc(Cl)c(Cl)s1 | 28
COc1ccc(Br)cc1S(=O)(=O)N1CCC(c2[nH]nc(-c3ccc(F)cc3)c2-c2ccncc2)CC1 | 36
C[C@@H](NC(=O)c1ccc(F)cc1F)c1[nH]nc(-c2ccc(F)cc2)c1-c1ccncc1 | 77
CC(C)OC(=O)NCc1[nH]nc(-c2ccc(F)cc2)c1-c1ccncc1 | 54
O=C(c1ccccc1Cl)N1CCC(c2[nH]nc(-c3ccc(F)cc3)c2-c2ccncc2)CC1 | 85
NC(=O)NCc1[nH]nc(-c2ccc(F)cc2)c1-c1ccncc1 | 50
O=C(NCc1[nH]nc(-c2ccc(F)cc2)c1-c1ccncc1)c1ccc(F)c(F)c1 | 26
O=C(NCc1[nH]nc(-c2ccc(F)cc2)c1-c1ccncc1)Nc1ccc(C(F)(F)F)cc1 | 10
CCNC(=O)NCc1[nH]nc(-c2ccc(F)cc2)c1-c1ccncc1 | 28
COc1ccc(NC(=O)NCc2[nH]nc(-c3ccc(F)cc3)c2-c2ccncc2)cc1 | 31
C[C@H](NC(=O)c1ccc(F)cc1C(F)(F)F)c1[nH]nc(-c2ccc(F)cc2)c1-c1ccncc1 | 58
CCCCCCCC(=O)NCc1[nH]nc(-c2ccc(F)cc2)c1-c1ccncc1 | 4
CCCNC(=O)N[C@H](C)c1[nH]nc(-c2ccc(F)cc2)c1-c1ccncc1 | 55
O=C(NCc1[nH]nc(-c2ccc(F)cc2)c1-c1ccncc1)c1cc(F)cc(C(F)(F)F)c1 | 26
O=C(NCc1[nH]nc(-c2ccc(F)cc2)c1-c1ccncc1)c1cc(F)c(F)cc1F | 36
Cc1c(C)c(S(=O)(=O)NCc2[nH]nc(-c3ccc(F)cc3)c2-c2ccncc2)c(C)c2c1OC(C)(C)CC2 | 11
C[C@@H](NC(=O)c1c(F)cc(F)cc1F)c1[nH]nc(-c2ccc(F)cc2)c1-c1ccncc1 | 75
CCCC(CCC)C(=O)NCc1[nH]nc(-c2ccc(F)cc2)c1-c1ccncc1 | 29
Cc1c(-c2ccncc2)c(-c2ccc(F)cc2)nn1CC(=O)N[C@H](C)c1cccc2ccccc12 | 23
O=S(=O)(NCc1[nH]nc(-c2ccc(F)cc2)c1-c1ccncc1)c1cc(Cl)cc(Cl)c1 | 45
O=C(NCc1[nH]nc(-c2ccc(F)cc2)c1-c1ccncc1)c1c(Cl)cc(Cl)cc1Cl | 100
C[C@@H](NC(=O)c1ccc(F)cc1C(F)(F)F)c1[nH]nc(-c2ccc(F)cc2)c1-c1ccncc1 | 90
CCCCOc1ccc(C(=O)NCc2[nH]nc(-c3ccc(F)cc3)c2-c2ccncc2)cc1 | 66
Cc1noc(C)c1S(=O)(=O)NCCCc1[nH]nc(-c2ccc(F)cc2)c1-c1ccncc1 | 85

Other lines, results leading:

inhibition [%] | SMILES
79 | C[C@H](NS(=O)(=O)c1cc(Cl)c(Cl)s1)c1[nH]nc(-c2ccc(F)cc2)c1-c1ccncc1
89 | C[C@@H](NS(=O)(=O)c1ccc(Br)cc1)c1[nH]nc(-c2ccc(F)cc2)c1-c1ccncc1
80 | Cc1ccc(C)c(S(=O)(=O)N[C@@H](C)c2[nH]nc(-c3ccc(F)cc3)c2-c2ccncc2)c1
32 | C[C@H](NC(=O)c1cccc(F)c1F)c1[nH]nc(-c2ccc(F)cc2)c1-c1ccncc1
40 | O=S(=O)(NCc1[nH]nc(-c2ccc(F)cc2)c1-c1ccncc1)c1ccc(F)cc1Cl
92 | COc1ccc(C)cc1S(=O)(=O)N[C@H](C)c1[nH]nc(-c2ccc(F)cc2)c1-c1ccncc1
22 | COc1ccc(CC(=O)N[C@@H](C)c2[nH]nc(-c3ccc(F)cc3)c2-c2ccncc2)cc1
95 | C[C@H](NS(=O)(=O)c1ccc(C#N)cc1)c1[nH]nc(-c2ccc(F)cc2)c1-c1ccncc1
19 | C[C@@H](NC(=O)c1ccccc1)c1[nH]nc(-c2ccc(F)cc2)c1-c1ccncc1
78 | Cc1ccc(S(C)(=O)=O)cc1S(=O)(=O)N[C@@H](C)c1[nH]nc(-c2ccc(F)cc2)c1-c1ccncc1
89 | O=S(=O)(NCc1[nH]nc(-c2ccc(F)cc2)c1-c1ccncc1)c1ccc(-c2ccon2)s1
14 | COc1cccc(CC(=O)N[C@@H](C)c2[nH]nc(-c3ccc(F)cc3)c2-c2ccncc2)c1
92 | C[C@H](NS(=O)(=O)c1ccc(-c2ccccn2)s1)c1[nH]nc(-c2ccc(F)cc2)c1-c1ccncc1
2 | O=C(NCc1[nH]nc(-c2ccc(F)cc2)c1-c1ccncc1)Nc1ccccc1-c1ccccc1
95 | C[C@@H](NS(=O)(=O)c1ccc(Cl)s1)c1[nH]nc(-c2ccc(F)cc2)c1-c1ccncc1
98 | C[C@@H](NS(=O)(=O)c1ccc(Cl)c(Cl)c1)c1[nH]nc(-c2ccc(F)cc2)c1-c1ccncc1

inhibition [%] | SMILES
70 | O=S(=O)(NCc1[nH]nc(-c2ccc(F)cc2)c1-c1ccncc1)c1ccccc1Cl
35 | C[C@@H](NC(=O)Nc1ccc(F)cc1)c1[nH]nc(-c2ccc(F)cc2)c1-c1ccncc1
30 | C[C@@H](NC(=O)N(C)c1ccccc1)c1[nH]nc(-c2ccc(F)cc2)c1-c1ccncc1
3 | O=C(NCc1[nH]nc(-c2ccc(F)cc2)c1-c1ccncc1)c1ccncc1
83 | C[C@H](NS(=O)(=O)c1ccc(CNC(=O)c2ccccc2)s1)c1[nH]nc(-c2ccc(F)cc2)c1-c1ccncc1
88 | C[C@H](NS(=O)(=O)Cc1ccccc1[N+](=O)[O-])c1[nH]nc(-c2ccc(F)cc2)c1-c1ccncc1
13 | CCCS(=O)(=O)N[C@H](Cc1ccccc1)c1[nH]nc(-c2ccc(F)cc2)c1-c1ccncc1
90 | C[C@H](NS(=O)(=O)c1ccc(Cl)c(Cl)c1)c1[nH]nc(-c2ccc(F)cc2)c1-c1ccncc1
29 | O=S(=O)(N[C@H](Cc1ccccc1)c1[nH]nc(-c2ccc(F)cc2)c1-c1ccncc1)c1cccs1
80 | C[C@H](NS(=O)(=O)c1cccc2ccccc12)c1[nH]nc(-c2ccc(F)cc2)c1-c1ccncc1
43 | C[C@@H](NC(=O)c1cccc(Cl)c1Cl)c1[nH]nc(-c2ccc(F)cc2)c1-c1ccncc1
2 | O=C(NCc1[nH]nc(-c2ccc(F)cc2)c1-c1ccncc1)c1ccccn1
42 | Cc1ccccc1C(=O)N[C@H](C)c1[nH]nc(-c2ccc(F)cc2)c1-c1ccncc1
25 | O=C(N[C@H](Cc1ccccc1)c1[nH]nc(-c2ccc(F)cc2)c1-c1ccncc1)c1ccccc1C(F)(F)F
73 | C[C@H](NS(=O)(=O)c1ccccc1S(C)(=O)=O)c1[nH]nc(-c2ccc(F)cc2)c1-c1ccncc1
